ChEMBL document CHEMBL1201862, “PubChem BioAssay data set” (2004)
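A five-concentration, 48-hour dose response in 96-well plates underlies each endpoint, interpolated linearly between surrounding concentrations. At the GI50, growth is halved.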 Calls of active or inactive are those of the source. Cut-off read from the data, not from the text of the source: active = GI50 up to about 1.1 µM and inactive = higher.

Key:
Test in all cases: NCI-60 cell line screen, 48 h
[1] = system: CCRF-CEM
[2] = system: U-251
[3] = system: HOP-92
[4] = system: COLO 205
[5] = system: OVCAR-8
[6] = system: TK-10
[7] = system: SK-OV-3
[8] = system: M14
[9] = system: HL-60
[10] = system: HOP-62
[11] = system: SF-539
[12] = system: SF-295
[13] = system: UACC-62
[14] = system: KM12
[15] = system: OVCAR-4
[16] = system: HCT-15

Measured: GI50

C/C(CC(=O)Nc1cccc([N+](=O)[O-])c1)=N\NC(=O)C[n+]1ccccc1
inactive: [1] > 100 µM | [2] > 100 µM | [3] > 100 µM | [4] > 100 µM | [5] > 100 µM | [6] > 100 µM | [7] > 100 µM | [8] > 100 µM | [9] > 100 µM | [10] > 100 µM | [11] > 100 µM | [12] > 100 µM | [13] > 100 µM | [14] > 100 µM

N=C(N)NCCCC(Nc1c2ccccc2[n+]([O-])c2ccccc12)C(=O)O (centres undefined)
36.8 µM: [16]
inactive: [1] 33.4 µM | [2] 72.3 µM | [15] 65.5 µM | [4] 27.3 µM | [5] 31.6 µM | [6] > 100 µM | [7] > 100 µM | [8] 73.6 µM | [9] 14.8 µM | [10] > 100 µM | [12] > 100 µM | [13] 42.5 µM | [14] 68.4 µM

CCN(CC)CC(=O)NC1c2ccccc2Oc2ccccc21
> 100 µM: [16]
inactive: [1] > 100 µM | [2] > 100 µM | [15] > 100 µM | [4] > 100 µM | [5] > 100 µM | [6] > 100 µM | [7] > 100 µM | [8] > 100 µM | [9] > 100 µM | [10] > 100 µM | [11] > 100 µM | [13] > 100 µM

COC(=O)N/N=C/c1oc(-c2cccc([N+](=O)[O-])c2)c(-c2cccc([N+](=O)[O-])c2)c1[N+](=O)[O-]
inactive: [1] 22.1 µM | [2] > 100 µM | [3] 49.3 µM | [15] > 100 µM | [4] > 100 µM | [5] > 100 µM | [6] > 100 µM | [7] > 100 µM | [8] > 100 µM | [9] 19.3 µM | [10] > 100 µM | [12] > 100 µM | [13] 59.8 µM | [14] > 100 µM
> 100 µM: [16]

O=C(c1ccccc1)[C@H]1Nc2cnccc2C2c3ccccc3CC21 (some centres undefined)
inactive: [1] 3.27 µM | [2] 11.3 µM | [3] 13.1 µM | [4] 19.8 µM | [5] 8.24 µM | [6] 35.1 µM | [7] 20.2 µM | [8] 6.82 µM | [9] 4.63 µM | [10] 25 µM | [11] 15.7 µM | [12] 18.2 µM | [13] 16.9 µM | [14] 42.1 µM
active: [15] 0.564 µM
8.95 µM: [16]

CCCCCCCCCOC(=S)NC
18.7 µM: [16]
inactive: [1] 19.7 µM | [2] 16.9 µM | [3] 18.2 µM | [15] 19.6 µM | [4] 22.8 µM | [5] 18.8 µM | [6] 21.3 µM | [7] 24.5 µM | [8] 21.1 µM | [9] 15.4 µM | [11] 17.6 µM | [12] 27.8 µM | [13] 23.2 µM | [14] 25.6 µM

COc1ccc(-n2/c(=N/C(=S)N(C)C)ss/c2=N\C(=S)N(C)C)cc1
inactive: [2] 25.6 µM | [15] 4.7 µM | [4] 48 µM | [5] 37 µM | [6] > 100 µM | [7] 27.8 µM | [8] 36.9 µM | [9] 17 µM | [10] 50.7 µM | [11] 52.2 µM | [12] 68.4 µM | [13] 4.21 µM | [14] 95.7 µM
> 100 µM: [16]

CN1C(c2ccccc2)CC(C)(O)CC1c1ccccc1 (centres undefined)
inactive: [1] > 100 µM | [2] > 100 µM | [3] > 100 µM | [15] > 100 µM | [4] > 100 µM | [5] > 100 µM | [6] > 100 µM | [7] > 100 µM | [8] > 100 µM | [9] 99.5 µM | [10] > 100 µM | [11] > 100 µM | [12] > 100 µM | [13] > 100 µM | [14] > 100 µM
> 100 µM: [16]

CC(=O)Nc1ccc(/C=C/C(=O)c2sc(-c3cccnc3)nc2C)cc1
> 100 µM: [16]
inactive: [1] > 100 µM | [2] > 100 µM | [3] > 100 µM | [4] > 100 µM | [5] > 100 µM | [6] > 100 µM | [7] > 100 µM | [9] > 100 µM | [10] > 100 µM | [11] > 100 µM | [12] > 100 µM | [13] > 100 µM | [14] > 100 µM

NNC(=O)CCC(=O)Nc1ccc(Cl)cc1Cl
inactive: [1] > 100 µM | [2] > 100 µM | [3] > 100 µM | [15] > 100 µM | [4] > 100 µM | [5] > 100 µM | [6] > 100 µM | [7] > 100 µM | [8] 45.1 µM | [9] 94.4 µM | [10] > 100 µM | [11] > 100 µM | [12] > 100 µM | [13] 28.8 µM | [14] > 100 µM
66.2 µM: [16]

CCOC(=O)C(/C(=N\NC(=O)OC)C(=O)Nc1cc(OC)ccc1OC)c1cnc2ccccc2n1 (centres undefined)
inactive: [1] > 100 µM | [2] > 100 µM | [3] > 100 µM | [15] > 100 µM | [4] > 100 µM | [5] > 100 µM | [6] > 100 µM | [7] > 100 µM | [8] > 100 µM | [9] 69.2 µM | [10] > 100 µM | [11] > 100 µM | [12] > 100 µM | [13] > 100 µM
> 100 µM: [16]

C/C(=N\N(C)C)c1sc(-n2nc(-c3ccccc3)cc2-c2ccccc2)nc1C
inactive: [1] > 100 µM | [2] 91.6 µM | [3] 61.9 µM | [15] > 100 µM | [4] > 100 µM | [5] > 100 µM | [6] 72.8 µM | [7] > 100 µM | [8] > 100 µM | [9] > 100 µM | [10] > 100 µM | [11] > 100 µM | [12] 51.2 µM | [13] > 100 µM | [14] > 100 µM
> 100 µM: [16]

CC1CCC2c3c([nH]c4ccccc34)C3C(=O)N(c4ccccc4)C(=O)C3C2C1 (centres undefined)
inactive: [1] 20 µM | [2] 64.9 µM | [3] 11.1 µM | [15] > 250 µM | [4] > 100 µM | [5] 43.5 µM | [6] 21.7 µM | [7] 10.1 µM | [8] 46.1 µM | [9] > 250 µM | [10] 32.7 µM | [11] 6.64 µM | [12] 15 µM | [13] 30.1 µM | [14] > 250 µM
> 250 µM: [16]

CCCCNC(=S)OCCC(C)CCCC(C)C (centres undefined)
inactive: [1] > 100 µM | [2] > 100 µM | [15] > 100 µM | [5] > 100 µM | [6] > 100 µM | [7] > 100 µM | [8] > 100 µM | [9] > 100 µM | [10] > 100 µM | [11] > 100 µM | [12] > 100 µM | [13] > 100 µM | [14] > 100 µM
> 100 µM: [16]

Cc1cc(Cl)ccc1NC(=O)C(=O)Cc1nc2ccc(C(=O)c3ccccc3)cc2nc1O
> 100 µM: [16]
inactive: [1] 35.6 µM | [3] 20.4 µM | [15] > 100 µM | [4] > 100 µM | [5] > 100 µM | [6] > 100 µM | [7] > 100 µM | [8] 96.6 µM | [9] 99.5 µM | [10] 92 µM | [11] > 100 µM | [12] 95.1 µM | [13] 70 µM | [14] 42.5 µM

CSc1cccc(-n2c3nc(=O)n(C)c(=O)c-3nc3ccccc32)c1
5.02 µM: [16]
inactive: [1] 11 µM | [2] 7.98 µM | [3] 9.33 µM | [15] 9.53 µM | [4] 2.94 µM | [5] 8.83 µM | [6] 21.8 µM | [7] 35.3 µM | [8] 2.7 µM | [9] 3.34 µM | [10] 18.1 µM | [11] 2.16 µM | [12] 10.8 µM | [13] 1.95 µM | [14] 12.9 µM

N#CCCN(c1ccc(/C=C2\N=C(Cc3ccccc3)OC2=O)cc1)S(=O)(=O)c1ccccc1
> 100 µM: [16]
inactive: [1] > 100 µM | [2] > 100 µM | [4] > 100 µM | [5] > 100 µM | [6] > 100 µM | [7] > 100 µM | [8] > 100 µM | [9] > 100 µM | [10] > 100 µM | [11] > 100 µM | [12] > 100 µM | [13] > 100 µM | [14] > 100 µM

O=C(CN1CCN(c2cccc(Cl)c2)CC1)N1CCc2c([nH]c3ccccc23)C1c1cccnc1 (centres undefined)
inactive: [1] 3.15 µM | [2] 10.2 µM | [3] 12.8 µM | [15] 13.5 µM | [5] 19.4 µM | [6] 26.2 µM | [7] > 100 µM | [8] 4.47 µM | [9] 2.38 µM | [10] 14.7 µM | [11] 15.5 µM | [12] 8.53 µM | [13] 11.3 µM | [14] 4.85 µM
5.25 µM: [16]

O=C1CCC(=O)c2cc(Br)ccc2N1
inactive: [1] > 68.9 µM | [2] 99.3 µM | [3] > 100 µM | [15] > 100 µM | [4] > 100 µM | [5] > 100 µM | [6] > 100 µM | [7] > 100 µM | [8] > 100 µM | [9] > 100 µM | [10] > 100 µM | [11] > 100 µM | [12] > 100 µM | [13] > 100 µM | [14] > 100 µM
> 100 µM: [16]
